For one data set, the system named is adipose tissue. Conditions: Pilkington, Cernohorsky, Muhlbachova, Wenkeova et al.; cited from earlier work.
The subject of a further data set is human adipocytes. The data set can be described thus: Test of lipolytic capacity on human adipocytes (glycerol release). Type of data set: cell-based. Conditions: for maximal lipolytic response elicited: glycerol released by human abdominal subcutaneous adipocytes, 90 min at 37° C., basal 0%, isoproterenol 100%. The source says:
The lipolytic capacity of the Synephrine Derivatives can be tested in human adipocytes. For the sake of convenience, for Examples 21 to 24, the known 2-isopropylamino-1-(4-hydroxyphenyl)-ethanol hydrochloride (Formula shown in Example 12, above, also known as isopropylnorsynephrine hydrochloride) is used here as a non-limiting example of a Synephrine Derivative.
In this example, the lipolytic property of isopropylnorsynephrine hydrochloride was compared to that of synephrine hydrochloride (Formula shown in Example 15). The index of lipolytic activity chosen was the glycerol released by freshly originated human adipocytes with reference to basal (0%, without any drug) and maximal (100%) responses to a standard lipolytic reference: isoproterenol.
Adipocytes were isolated from samples of subcutaneous abdominal adipose depot freshly obtained during abdominal lipectomy. The surgical interventions were conducted under general anaesthesia on ten healthy women undergoing abdominal plastic surgery. The human samples were transferred in less than 15 min to the laboratory for adipocyte preparation. The human abdominal subcutaneous adipocytes were obtained by collagenase digestion of the fresh samples of adipose tissue. The isolation, washing, handling and distribution of fat cells were carried out according to the technique described in Carpene, “Assays of Adrenergic Receptors: Including Lipolysis and Binding Measurements”, from Methods in Molecular Biology, supra. Briefly, extemporaneous dilutions of the tested drugs were added in 4 μl in plastic vials which received 400 μl of freshly prepared adipocyte suspension. The given concentrations were the final concentrations in which the cells were incubated for 90 min at 37° C. under gentle shaking. At the end of the experiment, the glycerol released by the cells was determined on an aliquot as described in Carpene, Id.
The mean lipid content in the incubation vials was 17.6±1.0 mg/400 μl, which corresponded to approximately 500,000 cells/vial.

The test system of the next data set is β-adrenergic. The settings on record: literature; cited from earlier work.
For data set [1] the following is noted: literature; cited from earlier work.
A further data set concerns the target T1, β3-adrenoceptors (Rattus norvegicus, UniProt P26255).
T1 construct: comparative studies in mammalian fat cells; host or cells: mammalian fat cells (adipocytes), endogenous receptor
Conditions: Carpene et al. 1999; cited from earlier work.

Another data set has as its system human fat cells. The settings on record: Carpene et al.; cited from earlier work.
A further data set relates to rat adipocyte. The settings on record: Carpene et al.; cited from earlier work.
The conditions of data set [2]: long use in China; Zhao et al. 1989; cited from earlier work.
[3] abbreviates: ratio to synephrine hydrochloride.

Entries after “also recorded” stand apart in the source; their conditions may differ. Counter-ions that a name gives are not always drawn.

T1 sequence (P26255 whole entry): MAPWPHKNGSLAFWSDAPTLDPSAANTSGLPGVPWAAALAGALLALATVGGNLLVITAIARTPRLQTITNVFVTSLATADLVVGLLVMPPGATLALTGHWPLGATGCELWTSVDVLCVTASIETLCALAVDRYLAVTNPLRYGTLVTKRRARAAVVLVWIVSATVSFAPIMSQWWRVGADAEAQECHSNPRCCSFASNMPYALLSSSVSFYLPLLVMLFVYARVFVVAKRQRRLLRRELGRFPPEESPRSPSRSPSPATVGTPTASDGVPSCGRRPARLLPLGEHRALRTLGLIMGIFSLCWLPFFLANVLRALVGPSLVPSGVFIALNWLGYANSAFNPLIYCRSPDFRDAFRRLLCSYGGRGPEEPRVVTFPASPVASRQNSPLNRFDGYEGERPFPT

For `CCCCNCC(O)c1ccc(O)cc1` (stereo not drawn) [Bamethan, 2-butylamino-1-(4-hydroxyphenyl)-ethanol], the “lipid mobilization properties in vitro” value with adipose tissue is given as “have lipid mobilization properties in vitro”.

For the compound `CCNCC(O)c1ccc(O)cc1` (stereo not drawn) [ethylnorsynephrine, 2-ethylamino-1-(4-hydroxyphenyl)-ethanol], in the data set on adipose tissue, the “lipid mobilization properties in vitro” value is “have lipid mobilization properties in vitro”.

For `CC(C)NCC(O)c1ccc(O)cc1` (stereo not drawn) [isopropylnorsynephrine hydrochloride, 2-Isopropylamino-1-(4-hydroxyphenyl)-ethanol hydrochloride], the “lipolytic effect at low concentration versus synephrine hydrochloride” value in the data set on human adipocytes (1μg/mL versus synephrine hydrochloride at 100 μg/mL) is “still far greater than that of synephrine hydrochloride”. Besides, the “maximal lipolytic response elicited” value in the data set with human adipocytes (FIG. 1) was ~60%. Further, in the data set with human adipocytes (human adipocytes, FIG. 1, hydrochloride), the “lipolytic property on human fat cells (in words)” value is reported as “strong lipolytic property; also recorded: superior than synephrine hydrochloride”. Further, in the data set with human adipocytes (setting [3]), the “capacity to stimulate human adipocytes lipolysis compared to synephrine hydrochloride” value was determined as 2 times and the “lipolytic potency relative to synephrine hydrochloride” value was ~100 times.

Regarding `CC(C)NCC(O)c1ccc(O)cc1` (stereo not drawn) [isopropylnorsynephrine, 2-isopropylamino-1-(4-hydroxyphenyl)-ethanol], in the data set with β-adrenergic, the “adrenergic activity (in words)” value is “pure β-adrenergic activity”. In data set [1], the “plasma free fatty acid level in vivo” value is listed as “can increase plasma free fatty acid level in vivo”. For the same compound, in the data set on adipose tissue, the “lipid mobilization properties in vitro” value is on record as “have lipid mobilization properties in vitro”.

Turning to `NCC(O)c1ccc(O)cc1` (stereo not drawn) [octopamine, 2-amino-1-(4-hydroxyphenyl)-ethanol], on β3-adrenoceptors, the “selective action on β3-adrenoceptors” value is “can selectively act on β3-adrenoceptors; also recorded: selective activation of β3-adrenoceptor”. For the same compound, the “effect on human fat cells (lipolysis)” value in the data set on human fat cells was “ineffective”. The rat adipocyte lipolysis result in the data set with rat adipocyte was “effective”.

As to `CC(C)(Cc1ccccc1)NCC(O)c1ccc(O)cc1` (stereo not drawn) [phenyl-t-butylnorsynephrine, 2-(phenyl-t-butylamino)-1-(4-hydroxyphenyl)-ethanol], the “lipid mobilization properties in vitro” value with adipose tissue is listed as “have lipid mobilization properties in vitro”.

Regarding `CCCNCC(O)c1ccc(O)cc1` (stereo not drawn) [propylnorsynephrine, 2-propylamino-1-(4-hydroxyphenyl)-ethanol], in the data set on adipose tissue, the “lipid mobilization properties in vitro” value was “have lipid mobilization properties in vitro”.

For the compound `CNCC(O)c1ccc(O)cc1` (stereo not drawn) [synephrine hydrochloride, 2-Methylamino-1-(4-hydroxyphenyl)-ethanol hydrochloride, reference compound], in the data set on human adipocytes (FIG. 1), the “maximal lipolytic response elicited” value was ~30%.

With `CNCC(O)c1ccc(O)cc1` (stereo not drawn) [synephrine, 2-methylamino-1-(4-hydroxyphenyl)-ethanol], in the data set with β-adrenergic, the “adrenergic activity (in words)” value is “both α- and β-adrenergic activity”. Moreover, the “plasma free fatty acid level in vivo” value in data set [1] is “can increase plasma free fatty acid level in vivo”. For the same compound, in the data set on adipose tissue, the “lipid mobilization properties in vitro” value is “have lipid mobilization properties in vitro”. For the same compound, in data set [2], the “effect on blood pressure” value was “increase blood pressure”.

In the case of `CC(C)(C)NCC(O)c1ccc(O)cc1` (stereo not drawn) [tert-butylnorsynephrine, 2-tert-butylamino-1-(4-hydroxyphenyl)-ethanol], in the data set on adipose tissue, the “lipid mobilization properties in vitro” value is given as “have lipid mobilization properties in vitro”.
